Source: US20240319209A1, “METHOD FOR QUANTIFYING AHSP PROTEIN AND ITS USE FOR PROGNOSING A HAEMOGLOBIN-RELATED DISORDER” (INSTITUT NATIONAL DE LA SANTÉ ET DE LA RECHERCHE MÉDICALE, priority 2021, published 2024)
Several values for one entry are separate records, joined by “and”; a condition that tells them apart may be missing. Equal entries are not always repeated. Entries after “also recorded” stand apart in the source; their conditions may differ.

Tests used:
SS patients = assay: Routine clinical and laboratory (haematological and biological) data in SS patients with HC treatment
α-Hb = assay: In vitro α-Hb pool measurement in haemolysate (capture on GST-AHSP affinity support); assay type: in vivo, human; conditions: Treated SS patients (HC), n=10, mean ± SD; ng free α-Hb per mg total subunits per mL of lysed RBCs
Method: (§1) We centrifuged 4 mL of whole blood from each subject for 5 min at 4° C., with blood samples processed within 2 h of collection. The plasma was gently removed, leaving 3 mm above the RBCs to retain the reticulocytes; the RBCs were washed with 0.15 M NaCl and then frozen at −80° C. They were thawed on ice and lysed with four volumes of cold distilled water, and incubated for 30 min at +4° C., before centrifugation at 16,000×g for 30 min at +4° C. The RBC lysate (haemolysate) was recovered as the supernatant and stored at −80° C.
The α-Hb pool was assessed for the RBC lysates of all subjects (SS patients and controls), by capturing α-Hb subunits on GST-AHSP bound to an affinity chromatography support, as previously described.^15

AHSP = assay: Determination of AHSP concentration in haemolysates by sandwich ELISA; assay type: in vivo, human
Method: as §1
We used high-binding 96-well ELISA plates (COSTAR High Binding ELISA Plates, Corning Incorporated, Corning, NY, USA). Following each step, up to 3,3′,5,5′-tetramethylbenzidine (TMB) addition, the wells were washed three times with 300 μL DPBS-0.05% Tween-20 (DPBS-TWEEN® Tablets, Calbiochem, Millipore Corporation, Burlington, MA, USA). The wells were coated with 100 μL/well anti-Ahsp antibody (EPR12319, diluted 1:1000 in DPBS) as the capture antibody. After 2 h at 37° C., the wells were washed and blocked by incubation for 2 h at 37° C. with 300 μL blocking buffer (0.15% BSA in DPBS). The wells were washed and left to dry in air, covered with SealPlate and stored at 4° C.
Serial dilutions of recombinant AHSP stored in −80° C. were prepared (0.395 to 3 ng/mL) in blocking buffer and added to the plate in duplicate in each assay, for construction of the calibration curve. Diluted recombinant AHSP were added to the coated wells (100 μL/well) and the plates were incubated for 2 h at 37° C. The plates were washed and 100 μL of biotin-conjugated rabbit polyclonal anti-human recombinant Ahsp antibody (Met1-Ser102) (ABIN2615200, Antibodies-online Gmb, Aachen, Germany, diluted 1:255 in blocking buffer), used as the detecting antibody, were added to each well, and the plates were incubated for 1 h at 37° C. The plates were washed five times and the samples were then incubated with 100 μL/well streptavidin-HRP (DY998, R&D Systems, Minneapolis, MN, USA, diluted 1:100 in blocking buffer) for 20 min at 37° C. in the dark. Next steps, washes and incubations, were performed in the dark. The reaction was developed by adding 50 μL/well TMB as a substrate (1-Step™ Ultra TMB-ELISA, Thermo Fisher Scientific). The plates were incubated for 5-10 min, and the reaction was then stopped by adding 50 μL/well 1 N sulfuric acid. Absorbance was measured immediately, at 450 nm (A450), with a microplate reader (Eon™, BioTek Instruments Inc, Winooski, Vermont, USA).
A standard curve was generated with known concentrations and absorbances of the recombinant human AHSP, with the EON microplate reader and Gen5 software.
The haemolysates were diluted 1:1000 in blocking buffer and added (100 μL/well) to the plate coated with the capture antibody. The plates were incubated for 2 h at 37° C., washed and 100 μL of the detecting antibody were added to each well, and then the plates were incubated for 1 h at 37° C. The further procedure is the same as for the AHSP range described above. The AHSP concentrations of the diluted haemolysates were determined by comparison to the standard curve expressed as ng per mL by the microplate reader. All the concentrations of AHSP obtained are the means of four ELISAs. Finally, taking into account the 1000-fold dilution of haemolysates, the final concentrations are reported in μg AHSP per mL of haemolysate.
The inter-subject variabilities were determined by calculating the CVs for four independent measurements of biological AHSP in each haemolysate.

[1] = Treated SS patients (HC), n=10, mean ± SD
[2] = HC-treated SS patients, n=10, FIG. 1

With NC(=O)NO [HC, hydroxycarbamide] the LDH (SS patients; Treated SS patients (HC), n = 9, mean ± SD) was 403.2 ± 68.09 U/L, the “DRBCs (dense dehydrated RBCs, density > 1.110 g/mL)” value (SS patients; [1]) was 4.3% and 4.3 ± 2.54% and the Ferritin (SS patients; [1]) was 333.2 ± 206.8 µg/L. It also gave a Haematocrit (SS patients; [1]) of 28.4 ± 4.74%, a Hb (SS patients; [1]) of 9.9 ± 1.58 g/dL and a HbA2 (SS patients; [1]) of 2.04 ± 0.53%. For the same molecule, the HbF (SS patients; [1]) was 21.51% and 21.51 ± 5.36%, the HbS (SS patients; [1]) was 76.45 ± 4.9% and the MCH (SS patients; [1]) was 39.7 ± 4.76 pg. The MCHC (SS patients; [1]) was 34.8 ± 0.79 g/dL, the “MCHbF (% HbF × MCH)” value (SS patients; [1]) was 8.69 ± 2.81 pg and the “MCHbS (% HbS × MCH)” value (SS patients; [1]) was 30.22 ± 2.89 pg. For the same molecule, the MCV (SS patients; [1]) was 114.3 ± 13.43 fL, the Platelets (SS patients; [1]) was 355.8 ± 125.5 ×10^9/L and the RBC (SS patients; [1]) was 2.42 ± 0.45 ×10^12/L. For the same molecule, the RDW (SS patients; [1]) was 17 ± 2.26%, the Reticulocytes (SS patients; [1]) was 114.7 ± 45.87 ×10^9/L and the “Reticulocytes (%)” value (SS patients; [1]) was 4.57 ± 1.79%. For the same molecule, the Total bilirubin (SS patients; [1]) was 28.5 ± 14.18 µmol/L, the WBC (SS patients; Treated SS patients (stable HC treatment for at least one year), n=10, mean ± SD) was 6.88 ± 1.46 ×10^9/L and the α-Hb pool (α-Hb) was 162 ± 31 ppm. The “AHSP concentration, interquartile range (IQR)” value (AHSP; HC-treated SS patients, n=10) was 1.26 to 1.76 µg/mL, the “AHSP concentration, maximum value” (AHSP; [2]) was 2.16 μg AHSP per mL of haemolysate and the “AHSP concentration, minimum value” (AHSP; [2]) was 1.18 μg AHSP per mL of haemolysate. The “Effect of HC treatment on AHSP concentration in RBCs (in words)” value (AHSP; HC-treated vs untreated SS patients, remained higher than in controls) was “significantly lower; also recorded: significantly decreased”, the “Measured [AHSP], individual treated patients” value (AHSP; Individual HC-treated SS patients P13-P22, average of 3 or 4 independent measurements ± SD, haemolysate) was 1.37 ± 0.17 µg/mL and 2.16 ± 0.29 µg/mL and 1.99 ± 0.26 µg/mL and 1.32 ± 0.13 µg/mL and 1.18 ± 0.21 µg/mL and 1.29 ± 0.23 µg/mL and 1.19 ± 0.28 µg/mL and 1.34 ± 0.15 µg/mL and 1.44 ± 0.17 µg/mL and 1.69 ± 0.15 µg/mL and the “Measured [AHSP], group mean” value (AHSP; Treated SS patients (HC), n=10, mean ± SD, RBC haemolysate) was 1.50 ± 0.34 µg/mL.
